Patent US20200390774A1, “TRPA1 ANTAGONISTS FOR USE IN THE TREATMENT OF ATOPIC DERMATITIS” (GALDERMA RESEARCH & DEVELOPMENT, priority 2016, published 2020)

Assays:
hTRPV3 = target: T1, hTRPV3 (Homo sapiens, UniProt Q8NET8); conditions: unit inferred; cited from earlier work
T1 sequence (Q8NET8 1-790): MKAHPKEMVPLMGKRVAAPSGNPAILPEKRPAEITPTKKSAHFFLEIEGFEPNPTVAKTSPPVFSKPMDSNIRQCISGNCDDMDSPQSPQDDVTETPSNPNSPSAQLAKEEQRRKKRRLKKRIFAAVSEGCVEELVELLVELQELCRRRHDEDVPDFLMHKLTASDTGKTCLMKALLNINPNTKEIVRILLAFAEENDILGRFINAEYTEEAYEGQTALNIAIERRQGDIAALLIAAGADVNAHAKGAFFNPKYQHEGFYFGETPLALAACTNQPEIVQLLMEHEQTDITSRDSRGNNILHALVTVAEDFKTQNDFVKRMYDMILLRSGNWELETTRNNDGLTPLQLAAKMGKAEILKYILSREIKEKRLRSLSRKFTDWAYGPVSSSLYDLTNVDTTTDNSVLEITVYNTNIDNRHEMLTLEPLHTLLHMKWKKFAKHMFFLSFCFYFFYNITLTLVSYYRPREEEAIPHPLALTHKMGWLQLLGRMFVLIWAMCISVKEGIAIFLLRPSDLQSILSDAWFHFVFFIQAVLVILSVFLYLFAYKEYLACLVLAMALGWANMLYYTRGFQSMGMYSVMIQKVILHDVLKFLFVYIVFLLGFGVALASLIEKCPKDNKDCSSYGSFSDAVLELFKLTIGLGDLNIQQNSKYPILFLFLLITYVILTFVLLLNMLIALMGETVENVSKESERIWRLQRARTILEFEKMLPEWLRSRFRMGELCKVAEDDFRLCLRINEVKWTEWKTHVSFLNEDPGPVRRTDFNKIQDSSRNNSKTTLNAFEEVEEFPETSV

mouse AD-patch model = assay: AD-patch model (DERP epicutaneous sensitization); format: in vivo; conditions: topical 1% in acetone, days 44, 47 and 50; for epidermis thickness, change / inflammatory scores, change: day 51 histology; for TEWL-increase, change: measured day 51
Method: Female Balb/c mice were treated with Dermatophagoïdes pteronyssinus (DERP) allergen in 3 cycles of epicutaneous sensitization (patch) on abdominal skin with 2 patches applied twice weekly followed by 2 weeks of rest, during 7 weeks. Antagonists B or D were formulated at 1% in an acetone vehicle, applied to the sensitized-skin 2 hours before DERP-patches installation. Topical treatments with antagonists or a corticosteroid (used as a control) were only performed 3 times in the 3rd and last week of sensitization (at days 44, 47 and 50).
TEWL is measured the last day (Day 51) according to the protocol of FIG. 2.
On day 51, animals are sacrificed and skin is removed and fixed in formalin followed by embedment in paraffin, sectioning and staining with hematoxylin and eosin. Epidermis thickness is measured by averaging the values of measurements of five independent fields of view.
On day 51, animals are sacrificed and skin is removed and fixed in formalin followed by embedment in paraffin, sectioning and staining with hematoxylin and eosin. Inflammation score is quantified by averaging the values of 10 random fields of view per sample, scored for inflammation with a gradient (semi-quantitative scoring from 0 to 5).
At day 51, gene expression of IL4 cytokine is quantified after RNA extraction from skin, RNA retro transcription and PCR using the TaqMan® Universal MasterMix of Applied Biosystem. cDNA of mice of group Vehicle 001 are used as comparator.
At day 51, gene expression of TSLP cytokine is quantified after RNA extraction from skin, RNA retro transcription and PCR using the TaqMan® Universal MasterMix of Applied Biosystem. cDNA of mice of group Vehicle 001 are used as comparator.
AD inflammatory response was induced by epicutaneous sensitization with patches soaked with 100 μg of allergen in sterile saline (Dermatophagoïdes pteronyssinus or DERP) or with vehicle applied on abdominal skin 24 h after shaving and left on for three 1-wk periods (with patch renewal at midweek), with a 2-wk interval between applications. The presence of the patches and of a transparent occlusive dressing above, prevented licking, biting and scratching from mouse, therefore the inflammatory response in this model is not due to the scratch-itch cycle.
Antagonists B or D were formulated at 1% in an acetone vehicle, applied to the sensitized-skin 2 hours before DERP-patches installation. Topical treatments with antagonists or a corticosteroid (used as a control) were only performed 3 times in the 3rd and last week of sensitization (at days 44, 47 and 50).
At the time of the last patch removal (day 51), skin samples and blood were collected.
Skin was collected for histological, immunohistological analyses and real-time PCR after RNA extraction. Ig (IgE, and specific IgG) concentrations in serum were measured by ELISA

[1] = system: TRPA1 agonist-induced ear edema; assay: Topical PD model: AITC (TRPA1 agonist)-induced ear edema; format: in vivo, mouse; conditions: topical 1% or 3% in acetone, 1 h before 6% AITC, measured during 6 hours
Method: Test antagonists B to D were formulated at 1% or 3% in an acetone vehicle, applied to the mouse ear skin (10 μl/ear both faces) and left for 1 hour. Then, 10 μl of a 6% solution of allyl isothiocyanate (AITC) in acetone (vehicle 001) was applied to the same location, and ear thickness was measured at TO, 30 min, 1 h, 2 h, 4 h and 6 h. A topical pharmacodynamics (PD) model was designed in mouse, in which test antagonists B to D were formulated at 1% or 3% in an acetone vehicle, applied to the ear skin and left for 1 hour. After this time, a 6% solution of allyl isothiocyanate (AITC), a TRPA1 agonist, in acetone (vehicle 001) was then applied to the same location and ear edema (via the ear thickness) was measured during 6 hours.

[2] = system: imiquimod-induced psoriasiform skin inflammation; assay: Imiquimod (Aldara) psoriasiform model; format: in vivo, mouse; conditions: topical 1% in PG/EtOH twice daily, day 8
Method: The treatment protocol consists of a daily topical application of Aldara (3.18 mg of imiquimod) for 7 days on the shaved back skin of Balb/c mice. Compound C was dissolved in PG/EtOH at 1% and was applied twice daily 2 h before and 6 h after Aldara treatment. Corticosteroid was dissolved in acetone (Vehicle 001) at 0.01% and applied only 2 h before Aldara treatment. Epidermis thickness is then measured at day 8 according to the protocol of FIG. 3. […] Indeed, it induces inflamed scaly skin lesions resembling psoriasis plaques. […] IMQ induced epidermal expression of IL-23, IL-17A, and IL-17F, as well as an increase in splenic Th17 cells (J Immunol. 2009 May 1; 182(9):5836-45). Mice received a daily topical dose of 63.5 mg (14 μl) of commercially available IMQ cream (5%) (Aldara; 3M Pharmaceuticals) on the shaved back skin for 7 consecutive days.

[3] = cited from earlier work
pain models = conditions: cited from earlier work
hTRPA1 = hTRPA1 (Homo sapiens, UniProt O75762); conditions: value in μM; cited from earlier work
rTRPA1 = rTRPA1 (Rattus norvegicus, UniProt Q6RI86); conditions: cited from earlier work
rTRPA1, sequence (Q6RI86 whole entry): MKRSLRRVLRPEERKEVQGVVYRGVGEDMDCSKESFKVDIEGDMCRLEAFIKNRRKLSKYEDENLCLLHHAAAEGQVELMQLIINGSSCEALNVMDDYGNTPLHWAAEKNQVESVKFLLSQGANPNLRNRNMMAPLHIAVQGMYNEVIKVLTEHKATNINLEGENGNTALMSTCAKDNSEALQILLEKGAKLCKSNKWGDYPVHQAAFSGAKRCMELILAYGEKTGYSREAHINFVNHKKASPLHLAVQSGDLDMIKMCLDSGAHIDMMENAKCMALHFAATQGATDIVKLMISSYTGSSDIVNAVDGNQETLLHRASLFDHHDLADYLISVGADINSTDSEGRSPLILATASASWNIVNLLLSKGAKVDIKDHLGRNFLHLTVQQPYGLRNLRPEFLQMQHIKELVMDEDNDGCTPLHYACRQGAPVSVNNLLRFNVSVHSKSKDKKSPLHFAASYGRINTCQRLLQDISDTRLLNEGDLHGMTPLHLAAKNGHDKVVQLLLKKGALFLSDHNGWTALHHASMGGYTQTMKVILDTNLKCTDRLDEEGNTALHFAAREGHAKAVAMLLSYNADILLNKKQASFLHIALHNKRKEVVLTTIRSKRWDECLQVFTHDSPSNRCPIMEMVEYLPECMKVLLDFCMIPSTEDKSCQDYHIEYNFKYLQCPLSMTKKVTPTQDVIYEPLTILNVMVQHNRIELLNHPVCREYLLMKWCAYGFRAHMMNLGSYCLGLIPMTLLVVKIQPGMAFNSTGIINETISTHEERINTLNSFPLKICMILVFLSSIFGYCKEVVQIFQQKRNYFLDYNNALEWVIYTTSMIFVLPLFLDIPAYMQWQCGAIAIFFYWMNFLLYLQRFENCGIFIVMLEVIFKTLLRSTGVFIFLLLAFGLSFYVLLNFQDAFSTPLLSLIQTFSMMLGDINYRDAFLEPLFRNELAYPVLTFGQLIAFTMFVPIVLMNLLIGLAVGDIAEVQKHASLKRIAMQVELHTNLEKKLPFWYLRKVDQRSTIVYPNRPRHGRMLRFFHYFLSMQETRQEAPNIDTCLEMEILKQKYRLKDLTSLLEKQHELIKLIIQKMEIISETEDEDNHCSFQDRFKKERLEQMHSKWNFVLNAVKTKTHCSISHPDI

hTRPA1, sequence (O75762 whole entry): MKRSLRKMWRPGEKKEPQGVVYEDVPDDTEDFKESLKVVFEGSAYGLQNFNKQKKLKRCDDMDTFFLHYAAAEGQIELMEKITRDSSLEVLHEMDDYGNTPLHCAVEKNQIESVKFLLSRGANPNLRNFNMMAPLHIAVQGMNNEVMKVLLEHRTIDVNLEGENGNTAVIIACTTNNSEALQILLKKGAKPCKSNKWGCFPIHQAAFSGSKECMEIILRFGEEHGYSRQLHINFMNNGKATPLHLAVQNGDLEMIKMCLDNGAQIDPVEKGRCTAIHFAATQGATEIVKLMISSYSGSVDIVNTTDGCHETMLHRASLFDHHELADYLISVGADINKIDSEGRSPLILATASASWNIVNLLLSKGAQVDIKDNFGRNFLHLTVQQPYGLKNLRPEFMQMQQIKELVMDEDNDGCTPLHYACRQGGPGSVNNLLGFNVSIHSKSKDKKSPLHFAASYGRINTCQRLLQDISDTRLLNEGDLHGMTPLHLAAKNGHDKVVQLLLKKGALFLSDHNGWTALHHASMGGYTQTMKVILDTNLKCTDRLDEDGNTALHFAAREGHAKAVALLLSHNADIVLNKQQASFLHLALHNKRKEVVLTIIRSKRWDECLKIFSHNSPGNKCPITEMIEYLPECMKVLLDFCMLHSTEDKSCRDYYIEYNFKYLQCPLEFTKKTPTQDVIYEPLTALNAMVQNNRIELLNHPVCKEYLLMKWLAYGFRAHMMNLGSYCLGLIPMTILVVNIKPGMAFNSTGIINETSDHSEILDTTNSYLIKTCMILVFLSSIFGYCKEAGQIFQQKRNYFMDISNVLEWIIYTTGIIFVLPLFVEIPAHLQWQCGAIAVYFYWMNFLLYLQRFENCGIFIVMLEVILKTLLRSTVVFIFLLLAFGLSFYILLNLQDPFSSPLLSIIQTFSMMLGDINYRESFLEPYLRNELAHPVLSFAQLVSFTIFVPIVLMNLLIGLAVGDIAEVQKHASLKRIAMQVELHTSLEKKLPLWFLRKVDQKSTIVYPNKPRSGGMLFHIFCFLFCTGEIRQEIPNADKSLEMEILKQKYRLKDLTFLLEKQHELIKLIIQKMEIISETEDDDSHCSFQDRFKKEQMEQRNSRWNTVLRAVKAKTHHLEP

Compound	IC50 (hTRPV3) [µM]	epidermis thickness, change (mouse AD-patch model) [%]	inflammatory scores, change (mouse AD-patch model) [%]	TEWL-increase, change (mouse AD-patch model) [%]	TRPA1 agonist-induced ear edema (ear thickness) [1]	IL-17 production by yO T cells (IL17f mRNA) [2]	imiquimod-induced epidermis thickness increase [2]	oral bioavailability described in rat [3]	Efficacy described in pain model (ip) (pain models; ip)	IC50 (hTRPA1) [µM]	IC50 (rTRPA1) [µM]	Efficacy described in pain models in rat (pain models; rat)
Cc1cc2[nH]ncc2cc1-c1ccccc1C(F)(F)F [compound B]	> 30	−32	−27	−54	decreased	–	–	–	–	–	–	–
FC(F)(F)c1ccccc1-c1cc2cn[nH]c2cc1OCC1CC1 [compound C]	> 30	–	–	–	decreased	did not significantly reduce	did not significantly reduce	Low oral	Efficacy	–	–	–
CCC(C)c1ccc(NC(=O)Cn2cnc3c2c(=O)n(C)c(=O)n3C)cc1 (stereo not drawn) [compound D, reference compound]	–	−26	−32	−60	decreased	–	–	–	–	14 to 18	0.23	Efficacy
